Laboratory results from article PMC9604775, “Bioactive Peptides from Skipjack Tuna Cardiac Arterial Bulbs: Preparation, Identification, Antioxidant Activity, and Stability against Thermal, pH, and Simulated Gastrointestinal Digestion Treatments” (Marine Drugs, 2022).
Where a SMILES comes first, the peptide text is derived from it. Where no end group is shown, it is not given here.

Test: Stability to simulated gastrointestinal digestion (DPPH· scavenging activity)
Type: in vitro ADME
Conditions: two-stage model: pepsin 120 min then trypsin 120 min; 0 to 240 min; peptide 2.0 mg/mL; read-out DPPH· scavenging activity
Protocol: The stability of TCP1 to TCP11 from tuna cardiac arterial bulbs was determined according to the previous method with a slight modification. The DPPH· scavenging activity (%) of TCP1 to TCP11 at 2.0 mg/mL were measured at the set conditions to evaluate their stability.
The thermostability of TCP1 to TCP11 at 20, 40, 60, 80, or 100 °C for 60 min was analyzed in water bath. The influences of pH values of 3, 5, 7, 9, or 11 were employed to estimate the acid and alkali stability properties of TCP1 to TCP11 at 25 °C, and the detecting time was set to 60, 120, and 180 min, respectively. The influence of simulate GI digestion on the stability of TCP1 to TCP11 was evaluated by the two-stage digestion model. In short, APs (TCP1 to TCP11) were separately treated with pepsin for 120 min and trypsin for 120 min.

Going from CC(C)C[C@H](NC(=O)CN)C(=O)N[C@@H](CC(N)=O)C(=O)O [TCP10, Gly-Leu-Asn] (H-Gly-Leu-Asn-OH) to GDRGD [TCP11, Gly-Asp-Arg-Gly-Asp], the “Declined percentage of DPPH· scavenging activity after simulated GI digestion” value falls from 3.15% to 2.65%.

Compared with GEEGD [TCP5, Gly-Glu-Glu-Gly-Asp], GEGQR [TCP8, Gly-Glu-Gly-Gln-Arg] is lower in “Declined percentage of DPPH· scavenging activity after simulated GI digestion” value: 4.25% for the first, 4.21% for the second.

Test: not given
Design: method as in 5 sources, ref 41 = [41]; doi:10.1016/j.procbio.2022.01.008; 41. Wang Y.M. Li X.Y. Wang J. He Y. Chi C.F. Wang B. Antioxidant peptides from protein hydrolysate of skipjack tuna milt: Purification, identification, and cytoprotection on H 2 O 2 damaged human umbi ||| ref 44 = [44]; doi:10.1016/j.jff.2015.03.045; 44. Chi C.F. Hu F.Y. Wang B. Li T. Ding G.F. Antioxidant and anticancer peptides from protein hydrolysate of blood clam ( Tegillarca granosa ) muscle J. Funct. Foods 2015 15 301 313 10.1016/j.jff.2015 ||| ref 20 = [20]; doi:10.1016/j.jff.2014.10.027; 20. Chi C.F. Wang B. Wang Y.M. Zhang B. Deng S.G. Isolation and characterization of three antioxidant peptides from protein hydrolysate of bluefin leatherjacket ( Navodon septentrionalis ) heads J. Fu ||| ref 48 = [48]; PMID 31035632; doi:10.3390/md17050251; 48. Yang X.R. Qiu Y.T. Zhao Y.Q. Chi C.F. Wang B. Purification and characterization of antioxidant peptides derived from protein hydrolysate of the marine bivalve mollusk Tergillarca granosa Mar Drugs ||| ref 39 = [39]; PMID 31430875; doi:10.3390/antiox8080318; 39. Zhang L. Zhao G.X. Zhao Y.Q. Qiu Y.T. Chi C.F. Wang B. Identification and active evaluation of antioxidant peptides from protein hydrolysates of skipjack tuna ( Katsuwonus pelamis ) head Antioxida
Conditions: literature value; cited from earlier work

Going from “GHHAAA [literature antioxidant peptide from tuna milts]” to “GVPLT [literature antioxidant peptide from Navodon septentrionalis heads]”, the “EC50 ABTS^+·” value rises from 1120 µg/mL to 3124 µg/mL (2.8-fold).

“SVTEV [literature antioxidant peptide from tuna milts]” and “VRDQY [literature antioxidant peptide from tuna milts]” are within 1.5-fold of each other in “EC50 ABTS^+·” value: 1020 µg/mL for the first, 1040 µg/mL for the second.

First: WPPD [literature antioxidant peptide from blood cockle (T. granosa)]
Second: YGPM [literature antioxidant peptide from Scomberomorous niphonius skins]
The “EC50 ABTS^+·” value of the first is 1.5-fold lower: 540 µg/mL for the first, 820 µg/mL for the second.

Test: not given
Design: method as in 10 sources, ref 24 = [24]; PMID 35127795; doi:10.3389/fnut.2021.813780; 24. Wang J. Wang Y.M. Li L.Y. Chi C.F. Wang B. Twelve antioxidant peptides from protein hydrolysate of Skipjack tuna ( Katsuwonus pelamis ) roe prepared by flavourzyme: Purification, sequence identifi ||| ref 55 = [55]; doi:10.1016/j.jff.2016.06.008; 55. Pan X. Zhao Y.Q. Hu F.Y. Wang B. Preparation and identification of antioxidant peptides from protein hydrolysate of skate (Raja porosa) cartilage J. Funct. Foods 2016 25 220 230 10.1016/j.jff.2016 ||| ref 48 = [48]; PMID 31035632; doi:10.3390/md17050251; 48. Yang X.R. Qiu Y.T. Zhao Y.Q. Chi C.F. Wang B. Purification and characterization of antioxidant peptides derived from protein hydrolysate of the marine bivalve mollusk Tergillarca granosa Mar Drugs ||| ref 15 = [15]; doi:10.1016/j.jff.2018.06.014; 15. Zhao W.H. Luo Q.B. Pan X. Chi C.F. Sun K.L. Wang B. Preparation, identification, and activity evaluation of ten antioxidant peptides from protein hydrolysate of swim bladders of miiuy croaker ( Mi ||| ref 47 = [47]; PMID 35531284; doi:10.3389/fmicb.2022.791248; 47. Sun K. Gao M. Wang Y.Z. Li X.R. Wang P. Wang B. Antioxidant peptides from protein hydrolysate of marine red algae Eucheuma cottonii : Preparation, identification, and cytoprotective mechanisms on ||| ...
Conditions: literature value; cited from earlier work
Remark: another data set of the same source

First: EGPFGPEG [literature antioxidant peptide from redlip croaker scales]
Second: EPLSD [literature antioxidant peptide from blood cockle]
The “EC50 O2^−·” value of the first is 4.3-fold lower: 470 µg/mL for the first, 2040 µg/mL for the second.

First: EYEA [literature antioxidant peptide from Antarctic krill]
Second: FIMGPY [literature antioxidant peptide from skate cartilages]
The “EC50 O2^−·” value of the first is 2-fold lower: 793 µg/mL for the first, 1610 µg/mL for the second.

First: FYKA [literature antioxidant peptide from Eucheuma cottonii]
Second: GFIGPTE [literature antioxidant peptide from redlip croaker scales]
The “EC50 O2^−·” value of the first is 2.6-fold higher: 1910 µg/mL for the first, 740 µg/mL for the second.

Going from “GFYAA [literature antioxidant peptide from Miichthys miiuy swim bladders]” to “GPEGPMGLE [literature antioxidant peptide from redlip croaker scales]”, the “EC50 O2^−·” value falls from 3030 µg/mL to 620 µg/mL (4.9-fold).

Compared with “NGLEGLK [literature antioxidant peptide from giant squid]”, “PYGAKG [literature antioxidant peptide from S. niphonius skins]” is 1.9-fold higher in “EC50 O2^−·” value: 420 µg/mL for the first, 800 µg/mL for the second.

“QAEP [literature antioxidant peptide from tuna roes]” and “VPDDD [literature antioxidant peptide from Miichthys miiuy swim bladders]” are within 1.5-fold of each other in “EC50 O2^−·” value: 2916 µg/mL for the first, 4110 µg/mL for the second.

“WPPD [literature antioxidant peptide from blood cockle (T. granosa)]” and “YAVT [literature antioxidant peptide from Eucheuma cottonii]” are within 1.5-fold of each other in “EC50 O2^−·” value: 460 µg/mL for the first, 560 µg/mL for the second.

First: YGPM [literature antioxidant peptide from Scomberomorous niphonius skins]
Second: YPPAK [literature antioxidant peptide from Mytilus edulis]
The “EC50 O2^−·” value of the first is 10-fold higher: 730 µg/mL for the first, 72 µg/mL for the second.

Test: not given
Design: method as in 10 sources, ref 51 = [51]; doi:10.1016/j.jff.2015.04.042; 51. Cai L. Wu X. Zhang Y. Li X. Ma S. Li J. Purification and characterization of three antioxidant peptides from protein hydrolysate of grass carp ( Ctenopharyngodon idella ) skin J. Funct. Foods 2015 ||| ref 42 = [42]; PMID 35621976; doi:10.3390/md20050325; 42. Sheng Y. Qiu Y.T. Wang Y.M. Chi C.F. Wang B. Novel antioxidant collagen peptides of Siberian sturgeon ( Acipenser baerii ) cartilages: The preparation, characterization, and cytoprotection of H 2 ||| ref 24 = [24]; PMID 35127795; doi:10.3389/fnut.2021.813780; 24. Wang J. Wang Y.M. Li L.Y. Chi C.F. Wang B. Twelve antioxidant peptides from protein hydrolysate of Skipjack tuna ( Katsuwonus pelamis ) roe prepared by flavourzyme: Purification, sequence identifi ||| ref 48 = [48]; PMID 31035632; doi:10.3390/md17050251; 48. Yang X.R. Qiu Y.T. Zhao Y.Q. Chi C.F. Wang B. Purification and characterization of antioxidant peptides derived from protein hydrolysate of the marine bivalve mollusk Tergillarca granosa Mar Drugs ||| ref 43 = [43]; doi:10.1016/j.foodres.2010.02.009; 43. You L. Zhao M. Regenstein J.M. Ren J. Purification and identification of antioxidant peptides from loach ( Misgurnus anguillicaudatus ) protein hydrolysate by consecutive chromatography and electr ||| ...
Conditions: literature value; cited from earlier work
Remark: another data set of the same source

First: EYEA [literature antioxidant peptide from Antarctic krill]
Second: GPEGPMGLE [literature antioxidant peptide from redlip croaker scales]
The “EC50 HO·” value of the first is 2.1-fold higher: 946 µg/mL for the first, 450 µg/mL for the second.

Compared with “IELFPGLP [literature antioxidant peptide from Siberian sturgeon cartilages]”, “LKQELEDLLEKQE [literature antioxidant peptide from Pacific oyster]” is 35-fold lower in “EC50 HO·” value: 1630 µg/mL for the first, 46 µg/mL for the second.

Going from “NADFGLNGLEGLA [literature antioxidant peptide from giant squid]” to “PSYV [literature antioxidant peptide from pond loach meat]”, the “EC50 HO·” value rises from 612 µg/mL to 2640 µg/mL (4.3-fold).

Going from “QDHKA [literature antioxidant peptide from tuna milts]” to “SLPY [literature antioxidant peptide from Antarctic krill]”, the “EC50 HO·” value rises from 536 µg/mL to 826 µg/mL (1.5-fold).

“VGGRP [literature antioxidant peptide from grass carp skin]” and “WLDPDG [literature antioxidant peptide from T. granosa]” are within 1.5-fold of each other in “EC50 HO·” value: 2060 µg/mL for the first, 1540 µg/mL for the second.

Going from “WPPD [literature antioxidant peptide from blood cockle (T. granosa)]” to “YPPAK [literature antioxidant peptide from Mytilus edulis]”, the “EC50 HO·” value falls from 380 µg/mL to 228 µg/mL (1.7-fold).

Test: not given
Design: method as in 10 sources, ref 24 = [24]; PMID 35127795; doi:10.3389/fnut.2021.813780; 24. Wang J. Wang Y.M. Li L.Y. Chi C.F. Wang B. Twelve antioxidant peptides from protein hydrolysate of Skipjack tuna ( Katsuwonus pelamis ) roe prepared by flavourzyme: Purification, sequence identifi ||| ref 43 = [43]; doi:10.1016/j.foodres.2010.02.009; 43. You L. Zhao M. Regenstein J.M. Ren J. Purification and identification of antioxidant peptides from loach ( Misgurnus anguillicaudatus ) protein hydrolysate by consecutive chromatography and electr ||| ref 44 = [44]; doi:10.1016/j.jff.2015.03.045; 44. Chi C.F. Hu F.Y. Wang B. Li T. Ding G.F. Antioxidant and anticancer peptides from protein hydrolysate of blood clam ( Tegillarca granosa ) muscle J. Funct. Foods 2015 15 301 313 10.1016/j.jff.2015 ||| ref 42 = [42]; PMID 35621976; doi:10.3390/md20050325; 42. Sheng Y. Qiu Y.T. Wang Y.M. Chi C.F. Wang B. Novel antioxidant collagen peptides of Siberian sturgeon ( Acipenser baerii ) cartilages: The preparation, characterization, and cytoprotection of H 2 ||| ref 45 = [45]; PMID 23411302; doi:10.1016/j.foodchem.2012.12.002; 45. Wang B. Li L. Chi C.F. Ma J.H. Luo H.Y. Xu Y.F. Purification and Characterization of a novel antioxidant peptide derived from blue mussel ( Mytilus edulis ) protein hydrolysate Food Chem. 2013 138 ||| ...
Conditions: literature value; cited from earlier work
Remark: another data set of the same source

Compared with “EGPFGPEG [literature antioxidant peptide from redlip croaker scales]”, “FYKA [literature antioxidant peptide from Eucheuma cottonii]” is 6.9-fold higher in “EC50 DPPH·” value: 370 µg/mL for the first, 2560 µg/mL for the second.

“GFIGPTE [literature antioxidant peptide from redlip croaker scales]” and “GPEGPMGLE [literature antioxidant peptide from redlip croaker scales]” are within 1.5-fold of each other in “EC50 DPPH·” value: 450 µg/mL for the first, 590 µg/mL for the second.

First: IELFPGLP [literature antioxidant peptide from Siberian sturgeon cartilages]
Second: PSYV [literature antioxidant peptide from pond loach meat]
The “EC50 DPPH·” value of the first is 1.9-fold lower: 1380 µg/mL for the first, 2640 µg/mL for the second.

Compared with “SVTEV [literature antioxidant peptide from tuna milts]”, “TTANIEDRR [literature antioxidant peptide from salmon pectoral fin]” is 2.8-fold higher in “EC50 DPPH·” value: 890 µg/mL for the first, 2500 µg/mL for the second.

Going from “VRDQY [literature antioxidant peptide from tuna milts]” to “WPPD [literature antioxidant peptide from blood cockle (T. granosa)]”, the “EC50 DPPH·” value falls from 880 µg/mL to 360 µg/mL (2.4-fold).

First: YPPAK [literature antioxidant peptide from Mytilus edulis]
Second: YSKT [literature antioxidant peptide from Eucheuma cottonii]
The “EC50 DPPH·” value of the first is 1.5-fold higher: 2620 µg/mL for the first, 1710 µg/mL for the second.
